Results on four compounds are retold here after article PMC12560828, “Chemical structure drives developmental toxicity of alkyl-substituted naphthalenes in zebrafish” (Environment international, 2025).

One data set deals with zebrafish embryos. The data set can be described thus: Body burden measurement (GC-MS/MS) and concentration uptake ratio, vial exposure. It counts as in vivo, Danio rerio. As to conditions: 20 μM exposure; for measured concentration in embryo extract: 32 pooled embryos, 0.5 mL extract, single replicates. On the procedure: (§1) Body burden was measured for exposure to five chemicals at two timepoints: 24 and 48 hpf. […] The exposure concentration was chosen as it was the maximum possible concentration that ensured enough viable animals for collection at 48 hpf and allowed direct comparison of chemical uptake at the same exposure concentration.
(§2) Chemicals were exposed at 20 μM following the exposure procedure detailed in section 1.3, 24 vials per chemical. At 24 hpf, embryos were pooled in groups of 32 embryos (combining embryos from 4 vials) into 1.5 mL polypropylene RINO-safe lock tubes (n = 3 per chemical treatment, n = 3 per control). Tubes were briefly placed on ice to reduce embryo movement (<1 min); the remaining medium was removed; the tube was then flash frozen in liquid nitrogen and stored at −20 °C until extraction. Embryos in the remaining vials were plated as previously described in section 1.3 until collection at 48 hpf following the same procedure as 24 hpf collections (n = 3 per chemical treatment, n = 1 control).
(§3) Tissue extraction was performed as previously reported ([Rude et al., 2025]). Each sample was spiked with 25 μL internal standard in ethyl acetate and 100 μL of 1 mm glass beads (Next Advance, Troy, NY United States) were added to the RINO-safe lock tubes containing thawed tissue samples and left on ice for 10 min 250 mg of Na2SO4 and 200 μL of ethyl acetate were added to each tube and vortexed. Tubes were homogenized at speed 8 for 6 min in a Bullet Blender (Next Advance, Troy, NY, United States). 300 μL of ethyl acetate was added to each tube and the homogenization step was repeated until no pieces of non-homogenized fish tissue remained. Samples were then centrifuged for 10 min at 4 °C, 1600g. Sample supernatant (0.5 mL) was collected into amber vials and stored at 4 °C until chemical analysis.
(§4) Samples were analyzed for quantitation and identification of 161 PAHs. The method was performed with an Agilent 7890 gas chromatograph (GC), with a 7000C triple quadrupole mass spectrometer (MS/MS) using an Agilent J&W PAH select (30 m × 250 μm × 0.15 μm GC column). Calibration for each analyte utilized at least a 4-point (range: 4–7, median 6 points, n = 161) curve with R^2 ≥ 0.99. Specific instrument conditions were modified from [Anderson et al. (2015)] and are detailed in Table S3. GC–MS/MS data was analyzed using MassHunter Quantitative Analysis v.B.06.00 SP1 build 6.0.388.1 software (Agilent Corp. Wilmington,DE) ([Anderson et al., 2015]). Dynamic muti-reaction monitoring mode was used during analyses, and all PAHs were identified using analytical standards obtained from multiple sources (Table S1). Collison energies were optimized for each individual unsubstituted PAH, alkylation series (C1, C2, etc.), and when possible, specific alkylation group (i.e. methyl, ethyl, etc.).
(§5) Body burden concentrations based on average embryo wet weight at each timepoint were determined by the equation below. Total measured chemical was calculated from ng/mL concentrations times sample volume (0.5 mL). Bodyburdennmol/mgbw=total measured chemicalnmol/number of fish32×average body weightmg
(§6) Average body weights at 24 hpf and 48 hpf were assumed to be 0.31 mg and 0.26 mg, respectively as determined previously ([Rericha et al., 2024]). Statistical analysis to compare time points within chemicals was performed using a two-sided Student’s t-test (p-value ≤ 0.05). An ANOVA with a follow-up Dunn’s test was used to compare body burden between chemicals at 24 hpf (p-value ≤ 0.05). Body burden concentrations at 24 hpf were compared to the estimated percent effect of each measured chemical at the exposure concentration used for body burden analysis (20 μM). These estimates were made using the fitted concentration-response curves previously described in section 2.3.2.2.
(§7) Concentration uptake ratios between vial exposures and 96-well plate exposures were compared using a two-sided Student’s t-test, p-values ≤ 0.05 were considered significant. […]

Test in data set [1]: as above
Format: in vivo, Danio rerio. As to conditions: zebrafish (Danio rerio), whole embryos (32 pooled, ethyl acetate extract), other: waterborne exposure of embryos in sealed vials, 20 μM exposure, 32 pooled embryos, 0.5 mL extract, single replicates, read-out: measured concentration in embryo extract. The protocol:
as §1, §2, §3, §4, §5, §6, §7

Molecules are shown by their SMILES. “And” between values parts separate entries of the source, which are not always exact repeats. Identical values can stand only once.

`Cc1cccc2c(C)cccc12` [1,5-dimethylnaphthalene]: in the data set with zebrafish embryos (24 hpf), the “measured concentration in embryo extract” value is 28000 ng/mL and 23900 ng/mL. In the data set on zebrafish embryos (48 hpf), the “measured concentration in embryo extract” value was 9300 ng/mL and 7200 ng/mL. In data set [1], the concentration at 24 hpf, 20 μM amounted to 29200 ng/mL and the concentration at 48 hpf, 20 μM came to 9160 ng/mL.

Regarding `Cc1ccc2cccc(C)c2c1` [1,7-dimethylnaphthalene], in the data set on zebrafish embryos (24 hpf), the body burden concentration result was “highest concentration”; the “measured concentration in embryo extract” value is 33000 ng/mL and 33300 ng/mL. Moreover, in the data set on zebrafish embryos (48 hpf), the “measured concentration in embryo extract” value was 11600 ng/mL and 10100 ng/mL. In addition, in data set [1], the concentration at 24 hpf, 20 μM was 34600 ng/mL and the concentration at 48 hpf, 20 μM turned out to be 11300 ng/mL.

For `Cc1cc(C)c2c(C)cccc2c1` [2,4,5-trimethylnaphthalene], in the data set with zebrafish embryos, the “percent reduction in body burden between 24 and 48 hpf” value was 46%. Also, the “measured concentration in embryo extract” value in the data set on zebrafish embryos (24 hpf) is 9270 ng/mL and 6860 ng/mL; in the data set on zebrafish embryos (48 hpf) it was 4950 ng/mL and 4550 ng/mL and 2080 ng/mL. Besides, in data set [1], the concentration at 24 hpf, 20 μM stood at 9620 ng/mL.

Regarding `Cc1ccc2ccc(C)cc2c1` [2,7-dimethylnaphthalene], the “measured concentration in embryo extract” value in the data set with zebrafish embryos (24 hpf) was 19900 ng/mL; with zebrafish embryos (48 hpf) it was 8080 ng/mL and 7630 ng/mL. In addition, the concentration at 24 hpf, 20 μM in data set [1] is 26500 ng/mL. In data set [1], the concentration at 48 hpf, 20 μM turned out to be 8890 ng/mL.
